Experimental data taken from patent US9339508B2, “Use of 3-methoxy-pregnenolone for the preparation of a drug for treating a traumatic brain injury” (MAPREG, priority 2003, dated 2016).

Tests used:
[1] = target: T1, human progesterone receptor (PR) (Homo sapiens, UniProt P06401); experiment: Test of progesterone receptor agonist activity (luciferase transactivation, HEK293T); format: cell-based; settings: 24 hours, increasing amounts
T1 construct: expressed in transfected cells; host or cells: HEK293T cells
T1 sequence (P06401 1-933): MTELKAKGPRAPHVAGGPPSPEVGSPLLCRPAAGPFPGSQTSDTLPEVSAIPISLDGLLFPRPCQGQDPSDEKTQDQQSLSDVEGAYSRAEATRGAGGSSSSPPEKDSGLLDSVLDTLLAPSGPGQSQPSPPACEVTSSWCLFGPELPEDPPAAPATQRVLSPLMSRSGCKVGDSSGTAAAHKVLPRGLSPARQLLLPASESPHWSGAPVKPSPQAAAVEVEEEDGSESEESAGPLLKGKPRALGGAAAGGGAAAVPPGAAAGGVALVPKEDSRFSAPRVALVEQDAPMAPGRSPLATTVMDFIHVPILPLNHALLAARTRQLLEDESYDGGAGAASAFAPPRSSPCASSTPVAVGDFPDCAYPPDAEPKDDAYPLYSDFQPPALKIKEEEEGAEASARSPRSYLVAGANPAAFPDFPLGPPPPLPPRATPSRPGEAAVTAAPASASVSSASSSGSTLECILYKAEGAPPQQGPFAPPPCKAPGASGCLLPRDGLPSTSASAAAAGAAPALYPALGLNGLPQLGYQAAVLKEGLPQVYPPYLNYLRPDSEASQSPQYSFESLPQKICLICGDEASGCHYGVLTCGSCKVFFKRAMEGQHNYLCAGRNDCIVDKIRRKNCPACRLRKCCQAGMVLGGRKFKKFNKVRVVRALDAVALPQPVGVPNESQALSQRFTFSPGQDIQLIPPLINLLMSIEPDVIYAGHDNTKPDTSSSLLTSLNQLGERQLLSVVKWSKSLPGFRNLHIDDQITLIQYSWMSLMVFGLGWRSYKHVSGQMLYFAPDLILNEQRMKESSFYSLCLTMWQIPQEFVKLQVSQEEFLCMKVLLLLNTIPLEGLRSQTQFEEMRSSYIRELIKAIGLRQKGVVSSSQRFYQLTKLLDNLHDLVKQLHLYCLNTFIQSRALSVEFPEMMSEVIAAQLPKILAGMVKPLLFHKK
Protocol: The main experimental setting used is the following: HEK293T cells were transiently transfected, using calcium phosphate precipitation technology, with expression receptors pSG5hPR (which permits expression of human progesterone receptor (PR)), pFC31-luc (contains the luciferase gene under the control of the MTV promoter, which is in turn activated by binding of a progestin to progesterone receptor) and pcbetagal (which permits expression of betagalactosidase), and cultured during 24 hours with increasing amounts of various compositions: • 1. […] Test of progesterone receptor […] activity: transfected cells were cultured with progesterone (1 nM) and increasing amounts of RU486 (a well-known progesterone receptor antagonist) or 3-methoxy-pregnenolone. • With this setting, a compound with progesterone receptor antagonist activity competes with progesterone for the occupation of progesterone receptor and results in a progressive loss of transactivation activity when the amount of this compound is increased compared to progesterone. Results

Sprague Dawley rats = experiment: Forced swimming test (FST); format: in vivo, rat; settings: 10 mg/kg subcutaneously, 24, 5, 1 h before testing
Protocol: Drugs were administered following the traditional dosing regimen used in the FST consisting of three injections: 24, 5, 1 h before testing.
The FET is currently the most widely used animal model for assessing depression related behavior and antidepressant drug activity in rodents (Cryan et al., Neubiorev. 2005). Rats are placed in an inescapable cylinder of water where they develop an immobile posture believed to reflect a “depressive”-like state. The Lime rats spend immobile is decreased by drugs exerting antidepressant activity.
Additional behaviors can be detected in the FST; namely, climbing and swimming. It has been shown that swimming behavior is sensitive to SSRIs such as fluoxetine whereas climbing is sensitive to norepinephrine re-uptake inhibitors (NRI) such as desipramine.

[2] = tested on: 80 different CNS neurotransmitters receptors; experiment: In vitro affinity screen on CNS receptors; format: binding; settings: 10 μM; significant: inhibition higher than 50%
Description: MAP4343 has been screened for in vitro affinity to 80 different CNS neurotransmitters receptors using various validated binding assays.

CCI traumatized animals = experiment: Water Exploration Test (WET) after Controlled Cortical Impact (CCI); format: in vivo, rat; design: key to Entry number in CZ, Conclusion vs. CCI-D0: ↓: decrease of analyzed variable with p < 0.05; ?: stability of analyzed variable; ↑↑: increase in analyzed variable with p < 0.01; settings: Day 27; 20 mg/kg (CCI-D2)
Protocol: (§1) CCI was performed with an electromagnetic impact device as described (MyNeurolab, St. Louis, Mo.; Brody et al, 2007). Anesthesized rats were subjected to a single right lateral CCI, with the following parameters impact centered 4.0 mm anterior to lambda and 4.5 mm […] of midline, within the craniotomy of the animal. The impact was set at a velocity of 4 m/s with a sustained depression of 200 ms, using a 5.0 mm tip.
The less anxious is a rat, the more time it will, spend “floating” (null velocity) in the central zone (see Fares-2009).
More precisely, a circular tank (180 cm diameter, 60 cm high) is filled with water maintained at 27° C. to a depth of 40 cm. The water is made opaque by adding black gouache, allowing the VideoTrack system (ViewPoint) to detect the white-coloured rat. This tank is divided into 4 identical quadrants (6,358 cm2 each) using two 180 cm long opaque plastic separators. In each quadrant, one rat is introduced with its head facing the corner between the separator and the tank's wall. It is noteworthy to emphasize that 4 rats can be tested simultaneously using the 4 quadrants. […] Thus, the distance, the number of entries, the time spent, and the velocity profile in the CZ are measured to assess anxiety-like behaviour. […]
The effect of 3-methoxy-PREG (MAP4343) on anxiety induced by trauma was analyzed using the WET test.

CCI injured hippocampi = experiment: Histological analysis of the hippocampus size after CCI; format: in vivo, rat; settings: day 35, 10 mg/kg and 20 mg/kg, first injection 2 h after TBI
Protocol: as §1
Frozen sections were stained with cresyl violet. For each section analyzed, the size of the hippocampus was determined by first outlining all remaining tissue of each section taken at 500 μm intervals through the lesion (right hemisphere) or contra lateral hemisphere, thus providing a total tissue area (mm2) of the two hemispheres for each section. Then, the areas of sections were summed per hemisphere.

**Q.** Which “progesterone receptor agonist activity (transactivation)” value [1] does the source give for `CO[C@H]1CC[C@@]2(C)C(=CC[C@H]3[C@@H]4CC[C@H](C(C)=O)[C@@]4(C)CC[C@@H]32)C1` [3-methoxy-PREG, 3β-methoxy-pregna-5-ene-20-one] here?
**A.** does not have progesterone receptor agonist activity

**Q.** What about the “rat climbing behavior in the FST” value (Sprague Dawley rats) of the same molecule?
**A.** not changed

**Q.** What about the “rat immobility in the FST” value (Sprague Dawley rats) of the same molecule?
**A.** significantly decreased

**Q.** What about the “rat swimming in the FST” value (Sprague Dawley rats) of the same molecule?
**A.** significantly increased

**Q.** And the “affinity for tested CNS receptors” value [2]?
**A.** no significant affinity for any tested receptor

**Q.** What about the “Entry number in CZ, Conclusion vs. CCI-D0” value (CCI traumatized animals) of the same molecule?
**A.** ↑↑

**Q.** What about the “Time spent in CZ, Conclusion vs. CCI-D0” value (CCI traumatized animals) of the same molecule?
**A.** ↑

**Q.** And the “size of the injured hippocampus” value (CCI injured hippocampi)?
**A.** significantly increases the size of the injured hippocampus
